# Oligonucleotides are given in HELM: sugar(base)linkage, 5' to 3'; d 2'-deoxyribose, r ribose, m 2'-O-methylribose, p phosphate. ss, as = sense and antisense strand
# Target: TMEM63B
# Test: reporter assay of Huesken 2005
# Conditions: siRNA
# Note: test concentration or dose not given here.
row,Substance,normalised inhibition (eCFP-eYFP dual reporter)
1,RNA1{r(A)p.r(A)p.r(C)p.r(G)p.r(C)p.r(C)p.r(A)p.r(U)p.r(G)p.r(G)p.r(A)p.r(C)p.r(C)p.r(U)p.r(G)p.r(C)p.r(U)p.r(G)p.r(C)p.d(T)p.d(T)}|RNA2{r(G)p.r(C)p.r(A)p.r(G)p.r(C)p.r(A)p.r(G)p.r(G)p.r(U)p.r(C)p.r(C)p.r(A)p.r(U)p.r(G)p.r(G)p.r(C)p.r(G)p.r(U)p.r(U)p.d(G)p.d(C)}$$$RNA1{StrandType:ss}|RNA2{StrandType:as}$,27.2%
2,RNA1{r(G)p.r(U)p.r(C)p.r(C)p.r(C)p.r(C)p.r(A)p.r(A)p.r(A)p.r(U)p.r(C)p.r(U)p.r(G)p.r(C)p.r(G)p.r(A)p.r(A)p.r(A)p.r(U)p.d(T)p.d(T)}|RNA2{r(A)p.r(U)p.r(U)p.r(U)p.r(C)p.r(G)p.r(C)p.r(A)p.r(G)p.r(A)p.r(U)p.r(U)p.r(U)p.r(G)p.r(G)p.r(G)p.r(G)p.r(A)p.r(C)p.d(A)p.d(G)}$$$RNA1{StrandType:ss}|RNA2{StrandType:as}$,82%
3,RNA1{r(A)p.r(G)p.r(U)p.r(U)p.r(U)p.r(G)p.r(G)p.r(C)p.r(G)p.r(C)p.r(A)p.r(G)p.r(C)p.r(C)p.r(U)p.r(A)p.r(C)p.r(G)p.r(C)p.d(T)p.d(T)}|RNA2{r(G)p.r(C)p.r(G)p.r(U)p.r(A)p.r(G)p.r(G)p.r(C)p.r(U)p.r(G)p.r(C)p.r(G)p.r(C)p.r(C)p.r(A)p.r(A)p.r(A)p.r(C)p.r(U)p.d(G)p.d(G)}$$$RNA1{StrandType:ss}|RNA2{StrandType:as}$,60.9%
4,RNA1{r(G)p.r(U)p.r(A)p.r(C)p.r(A)p.r(U)p.r(G)p.r(A)p.r(U)p.r(C)p.r(C)p.r(G)p.r(G)p.r(C)p.r(U)p.r(C)p.r(U)p.r(G)p.r(C)p.d(T)p.d(T)}|RNA2{r(G)p.r(C)p.r(A)p.r(G)p.r(A)p.r(G)p.r(C)p.r(C)p.r(G)p.r(G)p.r(A)p.r(U)p.r(C)p.r(A)p.r(U)p.r(G)p.r(U)p.r(A)p.r(C)p.d(A)p.d(T)}$$$RNA1{StrandType:ss}|RNA2{StrandType:as}$,46.8%
5,RNA1{r(C)p.r(U)p.r(G)p.r(C)p.r(G)p.r(C)p.r(U)p.r(G)p.r(C)p.r(C)p.r(U)p.r(G)p.r(G)p.r(U)p.r(C)p.r(A)p.r(U)p.r(C)p.r(A)p.d(T)p.d(T)}|RNA2{r(U)p.r(G)p.r(A)p.r(U)p.r(G)p.r(A)p.r(C)p.r(C)p.r(A)p.r(G)p.r(G)p.r(C)p.r(A)p.r(G)p.r(C)p.r(G)p.r(C)p.r(A)p.r(G)p.d(C)p.d(C)}$$$RNA1{StrandType:ss}|RNA2{StrandType:as}$,66.1%
6,RNA1{r(G)p.r(U)p.r(C)p.r(U)p.r(C)p.r(A)p.r(C)p.r(C)p.r(U)p.r(C)p.r(U)p.r(G)p.r(U)p.r(C)p.r(U)p.r(C)p.r(C)p.r(A)p.r(G)p.d(T)p.d(T)}|RNA2{r(C)p.r(U)p.r(G)p.r(G)p.r(A)p.r(G)p.r(A)p.r(C)p.r(A)p.r(G)p.r(A)p.r(G)p.r(G)p.r(U)p.r(G)p.r(A)p.r(G)p.r(A)p.r(C)p.d(G)p.d(C)}$$$RNA1{StrandType:ss}|RNA2{StrandType:as}$,88.6%
7,RNA1{r(C)p.r(C)p.r(C)p.r(A)p.r(U)p.r(C)p.r(A)p.r(U)p.r(C)p.r(A)p.r(C)p.r(C)p.r(C)p.r(A)p.r(G)p.r(U)p.r(U)p.r(C)p.r(U)p.d(T)p.d(T)}|RNA2{r(A)p.r(G)p.r(A)p.r(A)p.r(C)p.r(U)p.r(G)p.r(G)p.r(G)p.r(U)p.r(G)p.r(A)p.r(U)p.r(G)p.r(A)p.r(U)p.r(G)p.r(G)p.r(G)p.d(G)p.d(T)}$$$RNA1{StrandType:ss}|RNA2{StrandType:as}$,68.7%
8,RNA1{r(C)p.r(U)p.r(C)p.r(C)p.r(U)p.r(C)p.r(U)p.r(U)p.r(C)p.r(U)p.r(U)p.r(C)p.r(C)p.r(U)p.r(C)p.r(A)p.r(C)p.r(C)p.r(A)p.d(T)p.d(T)}|RNA2{r(U)p.r(G)p.r(G)p.r(U)p.r(G)p.r(A)p.r(G)p.r(G)p.r(A)p.r(A)p.r(G)p.r(A)p.r(A)p.r(G)p.r(A)p.r(G)p.r(G)p.r(A)p.r(G)p.d(G)p.d(A)}$$$RNA1{StrandType:ss}|RNA2{StrandType:as}$,68%
9,RNA1{r(C)p.r(G)p.r(C)p.r(U)p.r(A)p.r(C)p.r(A)p.r(A)p.r(G)p.r(G)p.r(A)p.r(G)p.r(G)p.r(A)p.r(U)p.r(G)p.r(A)p.r(U)p.r(C)p.d(T)p.d(T)}|RNA2{r(G)p.r(A)p.r(U)p.r(C)p.r(A)p.r(U)p.r(C)p.r(C)p.r(U)p.r(C)p.r(C)p.r(U)p.r(U)p.r(G)p.r(U)p.r(A)p.r(G)p.r(C)p.r(G)p.d(C)p.d(A)}$$$RNA1{StrandType:ss}|RNA2{StrandType:as}$,79.3%
10,RNA1{r(C)p.r(U)p.r(C)p.r(A)p.r(C)p.r(G)p.r(G)p.r(A)p.r(C)p.r(A)p.r(C)p.r(A)p.r(G)p.r(A)p.r(C)p.r(U)p.r(U)p.r(C)p.r(C)p.d(T)p.d(T)}|RNA2{r(G)p.r(G)p.r(A)p.r(A)p.r(G)p.r(U)p.r(C)p.r(U)p.r(G)p.r(U)p.r(G)p.r(U)p.r(C)p.r(C)p.r(G)p.r(U)p.r(G)p.r(A)p.r(G)p.d(G)p.d(G)}$$$RNA1{StrandType:ss}|RNA2{StrandType:as}$,61.7%
11,RNA1{r(C)p.r(U)p.r(U)p.r(C)p.r(C)p.r(U)p.r(G)p.r(U)p.r(A)p.r(U)p.r(C)p.r(U)p.r(G)p.r(C)p.r(U)p.r(G)p.r(C)p.r(U)p.r(C)p.d(T)p.d(T)}|RNA2{r(G)p.r(A)p.r(G)p.r(C)p.r(A)p.r(G)p.r(C)p.r(A)p.r(G)p.r(A)p.r(U)p.r(A)p.r(C)p.r(A)p.r(G)p.r(G)p.r(A)p.r(A)p.r(G)p.d(G)p.d(C)}$$$RNA1{StrandType:ss}|RNA2{StrandType:as}$,75.8%
12,RNA1{r(C)p.r(C)p.r(A)p.r(U)p.r(C)p.r(C)p.r(U)p.r(C)p.r(U)p.r(G)p.r(C)p.r(C)p.r(U)p.r(C)p.r(U)p.r(U)p.r(C)p.r(U)p.r(G)p.d(T)p.d(T)}|RNA2{r(C)p.r(A)p.r(G)p.r(A)p.r(A)p.r(G)p.r(A)p.r(G)p.r(G)p.r(C)p.r(A)p.r(G)p.r(A)p.r(G)p.r(G)p.r(A)p.r(U)p.r(G)p.r(G)p.d(G)p.d(C)}$$$RNA1{StrandType:ss}|RNA2{StrandType:as}$,53.2%
13,RNA1{r(C)p.r(C)p.r(G)p.r(C)p.r(C)p.r(G)p.r(A)p.r(G)p.r(A)p.r(G)p.r(G)p.r(C)p.r(G)p.r(C)p.r(A)p.r(A)p.r(C)p.r(G)p.r(U)p.d(T)p.d(T)}|RNA2{r(A)p.r(C)p.r(G)p.r(U)p.r(U)p.r(G)p.r(C)p.r(G)p.r(C)p.r(C)p.r(U)p.r(C)p.r(U)p.r(C)p.r(G)p.r(G)p.r(C)p.r(G)p.r(G)p.d(C)p.d(C)}$$$RNA1{StrandType:ss}|RNA2{StrandType:as}$,21.8%
14,RNA1{r(U)p.r(C)p.r(A)p.r(G)p.r(A)p.r(G)p.r(G)p.r(U)p.r(G)p.r(G)p.r(A)p.r(C)p.r(G)p.r(G)p.r(G)p.r(G)p.r(A)p.r(U)p.r(G)p.d(T)p.d(T)}|RNA2{r(C)p.r(A)p.r(U)p.r(C)p.r(C)p.r(C)p.r(C)p.r(G)p.r(U)p.r(C)p.r(C)p.r(A)p.r(C)p.r(C)p.r(U)p.r(C)p.r(U)p.r(G)p.r(A)p.d(G)p.d(T)}$$$RNA1{StrandType:ss}|RNA2{StrandType:as}$,29.5%
15,RNA1{r(C)p.r(A)p.r(C)p.r(U)p.r(U)p.r(C)p.r(A)p.r(A)p.r(A)p.r(U)p.r(A)p.r(C)p.r(C)p.r(U)p.r(C)p.r(A)p.r(G)p.r(U)p.r(G)p.d(T)p.d(T)}|RNA2{r(C)p.r(A)p.r(C)p.r(U)p.r(G)p.r(A)p.r(G)p.r(G)p.r(U)p.r(A)p.r(U)p.r(U)p.r(U)p.r(G)p.r(A)p.r(A)p.r(G)p.r(U)p.r(G)p.d(T)p.d(C)}$$$RNA1{StrandType:ss}|RNA2{StrandType:as}$,55%
16,RNA1{r(C)p.r(U)p.r(G)p.r(U)p.r(G)p.r(G)p.r(A)p.r(C)p.r(C)p.r(C)p.r(C)p.r(A)p.r(G)p.r(A)p.r(A)p.r(G)p.r(C)p.r(A)p.r(A)p.d(T)p.d(T)}|RNA2{r(U)p.r(U)p.r(G)p.r(C)p.r(U)p.r(U)p.r(C)p.r(U)p.r(G)p.r(G)p.r(G)p.r(G)p.r(U)p.r(C)p.r(C)p.r(A)p.r(C)p.r(A)p.r(G)p.d(T)p.d(A)}$$$RNA1{StrandType:ss}|RNA2{StrandType:as}$,75.4%
17,RNA1{r(U)p.r(A)p.r(C)p.r(C)p.r(U)p.r(C)p.r(A)p.r(G)p.r(U)p.r(G)p.r(C)p.r(C)p.r(C)p.r(A)p.r(C)p.r(A)p.r(A)p.r(C)p.r(U)p.d(T)p.d(T)}|RNA2{r(A)p.r(G)p.r(U)p.r(U)p.r(G)p.r(U)p.r(G)p.r(G)p.r(G)p.r(C)p.r(A)p.r(C)p.r(U)p.r(G)p.r(A)p.r(G)p.r(G)p.r(U)p.r(A)p.d(T)p.d(T)}$$$RNA1{StrandType:ss}|RNA2{StrandType:as}$,51.3%
18,RNA1{r(A)p.r(U)p.r(C)p.r(A)p.r(U)p.r(C)p.r(A)p.r(U)p.r(C)p.r(A)p.r(C)p.r(C)p.r(A)p.r(C)p.r(C)p.r(A)p.r(U)p.r(G)p.r(G)p.d(T)p.d(T)}|RNA2{r(C)p.r(C)p.r(A)p.r(U)p.r(G)p.r(G)p.r(U)p.r(G)p.r(G)p.r(U)p.r(G)p.r(A)p.r(U)p.r(G)p.r(A)p.r(U)p.r(G)p.r(A)p.r(U)p.d(G)p.d(G)}$$$RNA1{StrandType:ss}|RNA2{StrandType:as}$,59.5%
19,RNA1{r(C)p.r(A)p.r(C)p.r(C)p.r(C)p.r(A)p.r(G)p.r(U)p.r(U)p.r(C)p.r(U)p.r(U)p.r(C)p.r(C)p.r(C)p.r(C)p.r(A)p.r(C)p.r(C)p.d(T)p.d(T)}|RNA2{r(G)p.r(G)p.r(U)p.r(G)p.r(G)p.r(G)p.r(G)p.r(A)p.r(A)p.r(G)p.r(A)p.r(A)p.r(C)p.r(U)p.r(G)p.r(G)p.r(G)p.r(U)p.r(G)p.d(A)p.d(T)}$$$RNA1{StrandType:ss}|RNA2{StrandType:as}$,56.1%
20,RNA1{r(G)p.r(U)p.r(G)p.r(G)p.r(U)p.r(G)p.r(G)p.r(C)p.r(C)p.r(G)p.r(C)p.r(G)p.r(C)p.r(C)p.r(C)p.r(A)p.r(U)p.r(C)p.r(C)p.d(T)p.d(T)}|RNA2{r(G)p.r(G)p.r(A)p.r(U)p.r(G)p.r(G)p.r(G)p.r(C)p.r(G)p.r(C)p.r(G)p.r(G)p.r(C)p.r(C)p.r(A)p.r(C)p.r(C)p.r(A)p.r(C)p.d(C)p.d(T)}$$$RNA1{StrandType:ss}|RNA2{StrandType:as}$,46.3%
